Experimental data from patent publication US20110275685A1, “SALT AND POLYMORPHS OF A KINESIN INHIBITOR COMPOUND” (priority 2009, published 2011).
Where a name gives a salt, the structure may show the parent alone. Read-outs that look alike come from different tables or passages of the source.

What was measured:
[1] = Solid state stability of the salts (HPLC, colour); details: Bulk (HPLC)
Text: Tests for solid state stability were made for the mesylate, tosylate and hippurate salts as prepared above.

[2] = Weight loss on drying by thermogravimetry (hygroscopicity); assay type: physicochemical; details: for hygroscopicity: judged from weight loss as prepared vs 1 day at 92% relative humidity
Text: The weight loss (%) on drying, measured by thermogravimetry, of the salt as prepared was 1.12%. If kept for 1 day at 92% relative humidity, the weight loss was 1.71%.
The weight loss (%) on drying, measured by thermogravimetry, of the salt as prepared was 2.08%. If kept for 1 day at 92% relative humidity, the weight loss was 2.21%.
The weight loss (%) on drying, measured by thermogravimetry, of the salt as prepared was 1.76%. If kept for 1 day at 92% relative humidity, the weight loss was 2.14%.

[3] = Stability of liquid formulations of the salts; details: for stability in DMSO: either diluted or not
Method: From the mesylate, tosylate and hippurate salts as prepared above, liquid formulations were prepared by dissolving/suspending these salts in a solvent/suspension medium. Stability tests were made on these liquid formulations. The amount of degradation products and the degree of discoloration were established.

[4] = Solubility of the obtained material; assay type: physicochemical; details: thermodynamic from solid
Method: 2.40 g of amorphous N-((S)-3-amino-4-fluorobutyl)-N-((R)-1-(1-benzlyl-4-(2,5-difluoro-phenyl)-1H-imidazol-2-yl)-2,2-dimethylpropyl)-2-hydroxyacetamide were dissolved at 50° C. in 9 ml acetonitrile/water 95:5 v/v having a water activity of 0.6, and stirred. Within about 1 minute, a suspension was formed. Another 6 ml of acetonitrile/water 95:5 v/v were added. Subsequently, the suspension was cooled to room temperature in about 1 hour and stirred for 14 hours. Then, the suspension was filtered and air dried for about 5 minutes. Yield: 1.82 g (75%). The obtained material was analyzed by X-ray diffraction (FIG. 1).

[5] = 2 weeks, 50° C., tight container
[6] = Xenon light (approx. 1200 kLuxh)
[7] = 0.1% solutions or suspensions, 1 week, 50° C., Methanol
[8] = 0.1% solutions or suspensions, 1 week, 50° C., pH 3
[9] = 0.1% solutions or suspensions, 1 week, 50° C., pH 4.5
[10] = 0.1% solutions or suspensions, 1 week, 50° C., pH 5
[11] = 0.1% solutions or suspensions, 1 week, 50° C., pH 7
[12] = 2% solutions or suspensions, 1 day, room temperature, DMSO
[13] = 2% solutions or suspensions, 1 day, room temperature, Dilution pH 6.8 (diluted with buffer 1:100)
[14] = 5% solutions, 1 day, room temperature, DMSO
[15] = 5% solutions, 1 day, room temperature, Dilution pH 6.8

Structure (SMILES)	Amount of degradation products [%] ([1]; 2 weeks, 50° C., 75% r.h.)	Amount of degradation products [%] [1, 5]	Amount of degradation products [%] [1, 6]	hygroscopicity [2]	Amount of degradation products [%] [3, 7]	Amount of degradation products [%] [3, 8]	Amount of degradation products [%] [3, 9]	Amount of degradation products [%] [3, 10]	Amount of degradation products [%] [3, 11]	Amount of degradation products [%] [3, 12]	Amount of degradation products [%] [3, 13]	Amount of degradation products [%] [3, 14]	Amount of degradation products [%] [3, 15]	stability in DMSO [3]	other results
CC(C)(C)[C@H](c1nc(-c2cc(F)ccc2F)cn1Cc1ccccc1)N(CC[C@H](N)CF)C(=O)CO [Hippurate, N-((S)-3-amino-4-fluorobutyl)-N-((R)-1-(1-benzlyl-4-(2,5-difluorophenyl)-1H-imidazol-2-yl)-2,2-dimethylpropyl)-2-hydroxyacetamide]	1.02%	0.79%	0.43%	low hygroscopicity	11.81%	0.48%	1.03%	1.80%	5.32%	0.78%	0.82%	0.94%	0.84%	very stable	weight loss (%) on drying, measured by thermogravimetry ([2]; kept for 1 day at 92% relative humidity, listed as hippurate salt): 2.14%; weight loss (%) on drying, measured by thermogravimetry ([2]; salt as prepared, listed as hippurate salt): 1.76%
CC(C)(C)[C@H](c1nc(-c2cc(F)ccc2F)cn1Cc1ccccc1)N(CC[C@H](N)CF)C(=O)CO [Mesylate, N-((S)-3-amino-4-fluorobutyl)-N-((R)-1-(1-benzlyl-4-(2,5-difluorophenyl)-1H-imidazol-2-yl)-2,2-dimethylpropyl)-2-hydroxyacetamide]	<0.05%	0.07%	<0.05%	low hygroscopicity	0.21%	0.25%	0.69%	0.71%	3.87%	0.07%	0.19%	<0.05%	0.30%	very stable	weight loss (%) on drying, measured by thermogravimetry ([2]; kept for 1 day at 92% relative humidity, listed as mesylate salt): 2.21%; weight loss (%) on drying, measured by thermogravimetry ([2]; salt as prepared, listed as mesylate salt): 2.08%; stability in methanol ([3]; in methanol): very stable
CC(C)(C)[C@H](c1nc(-c2cc(F)ccc2F)cn1Cc1ccccc1)N(CC[C@H](N)CF)C(=O)CO [Tosylate, N-((S)-3-amino-4-fluorobutyl)-N-((R)-1-(1-benzlyl-4-(2,5-difluorophenyl)-1H-imidazol-2-yl)-2,2-dimethylpropyl)-2-hydroxyacetamide]				low hygroscopicity											Amount of degradation products [%] (1 week, 0.1 %): 0.35%; Amount of degradation products [%] (1 week, 0.1 %, pH 3): 0.27%; Amount of degradation products [%] (1 week, 0.1 %, pH 4.5): 0.59%; Amount of degradation products [%] (1 week, 0.1 %, pH 5): 1.81%; Amount of degradation products [%] (1 week, 0.1 %, pH 7): 7.60%; Amount of degradation products [%] (1 day, 0.02 %, pH 6.8): 0.33%; Amount of degradation products [%] (1 day, 2 %): 0.14%; Amount of degradation products [%] (1 day, 5 %): 0.15%; Amount of degradation products [%] (1 day, pH 6.8): 0.11%; weight loss (%) on drying, measured by thermogravimetry ([2]; kept for 1 day at 92% relative humidity, listed as tosylate salt): 1.71%; weight loss (%) on drying, measured by thermogravimetry ([2]; salt as prepared, listed as tosylate salt): 1.12%
CC(C)(C)[C@H](c1nc(-c2cc(F)ccc2F)cn1Cc1ccccc1)N(CC[C@H](N)CF)C(=O)CO [crystalline form D, N-((S)-3-amino-4-fluorobutyl)-N-((R)-1-(1-benzlyl-4-(2,5-difluorophenyl)-1H-imidazol-2-yl)-2,2-dimethylpropyl)-2-hydroxyacetamide mesylate]															solubility ([4]; 0.1 N HCl, pH 1, simulated gastric fluid, read-out: solubility in 0.1 N HCl): 1.4 mg/mL; solubility ([4]; buffer pH 6.8, pH 6.8, aqueous buffer, read-out: solubility in buffer with pH 6.8): 0.01 mg/mL; solubility ([4]; water, read-out: solubility in water): 4.4 mg/mL
